Results published in BindingDB's records for doi:10.1021/jm9004225 (National Institute On Drug Abuse and The National Institute …, 2009).

Experiment: Displacement of [3H]U69593 from human recombinant kappa opioid receptor expressed in CHO cells

CC[C@]12CCN(C)C[C@H]1Oc1ccc(O)cc12 [4aR,9aS-(+)-cis-4a-Ethyl-2-methyl-1,2,3,4,4a,9a-hexahydrobenzofuro[2,3-c]pyridin-6-ol]
Ki: > 10 µM
